Patent US20110251066A1, “ISOXAZOLE DERIVATIVES FOR USE AS PLANT GROWTH REGULATORS” (SYNGENTA CROP PROTECTION LLC, priority 2008, published 2011)

Assays:
[1] = PGR activity of separated enantiomers (test not specified); details: (R)- versus (S)-enantiomer of compound 146
[2] = tested on: grape seedlings cultivar (cv.) Gutedel; assay: Plant growth regulation effects on grape seedlings; assay type: in vivo; details: 200 ppm, spray chamber, 8 days at 22° C. and 80% r.h.
Method: Five weeks old grape seedlings cultivar (cv.) Gutedel were treated with the formulated test compound in a spray chamber. After an incubation period of 8 days at 22° C. and 80% relative humidity (r.h.) in a greenhouse, the plant growth regulating effects were assessed.

Monographella nivalis = assay: Fungal growth inhibition in nutrient broth, microtiter plate, photometric; assay type: cell-based; details: 200 ppm, 24° C., 72 hours, 620 nm
Method: Monographella nivalis (syn. Microdochium nivale, Fusarium nivale), snow mould, foot rot of cereals: Conidia of the fungus from cryogenic storage were directly mixed into nutrient broth (PDB potato dextrose broth). After placing a (DMSO) solution of the test compounds into a microtiter plate (96-well format) the nutrient broth containing the fungal spores was added. The test plates were incubated at 24° C. and the inhibition of growth was determined photometrically after 72 hours at 620 nm. Compound (S)-(146) gave at least 80% control of Monographella nivalis at 200 ppm.

Rhizoctonia solani = assay: as above; assay type: cell-based; details: 200 ppm, 24° C., 48 h
Method: Rhizoctonia solani (foot rot, damping-off): Mycelial fragments of the fungus, prepared from a fresh liquid culture, were directly mixed into nutrient broth (PDB potato dextrose broth). After placing a (DMSO) solution of the test compounds into a microtiter plate (96-well format) the nutrient broth containing the fungal mycelium was added. The test plates were incubated at 24° C. and the inhibition of growth was determined photometrically after 48 h. Compound (S)-(146) gave at least 80% control of Rhizoctonia solani at 200 ppm.

Septoria tritici = assay: as above; assay type: cell-based; details: 200 ppm, 24° C., 72 hours
Method: Septoria tritici (leaf blotch): Conidia of the fungus from cryogenic storage were directly mixed into nutrient broth (PDB potato dextrose broth). After placing a (DMSO) solution of the test compounds into a microtiter plate (96-well format) the nutrient broth containing the fungal spores was added. The test plates were incubated at 24° C. and the inhibition of growth was determined photometrically after 72 hours. Compound (S)-(146) gave at least 80% control of Septoria tritici at 200 ppm.

Mycosphaerella arachidis = assay: as above; assay type: cell-based, Mycosphaerella arachidis (syn. Cercospora arachidicola); details: 200 ppm, 24° C., 72 hours, 620 nm
Method: Mycosphaerella arachidis (syn. Cercospora arachidicola), Brown leaf spot of groundnut (peanut): Conidia of the fungus from cryogenic storage were directly mixed into nutrient broth (PDB potato dextrose broth). After placing a (DMSO) solution of the test compounds into a microtiter plate (96-well format) the nutrient broth containing the fungal spores was added. The test plates were incubated at 24° C. and the inhibition of growth was determined photometrically after 72 hours at 620 nm. Compound (S)-(146) gave at least 80% control of Mycosphaerella arachidis at 200 ppm.

Fusarium culmorum = assay: as above; assay type: cell-based; details: 200 ppm, 24° C., 48 hours
Method: Fusarium culmorum (root rot): Conidia of the fungus from cryogenic storage were directly mixed into nutrient broth (PDB potato dextrose broth). After placing a (DMSO) solution of the test compounds into a microtiter plate (96-well format) the nutrient broth containing the fungal spores was added. The test plates were incubated at 24° C. and the inhibition of growth was determined photometrically after 48 hours. Compound (S)-(146) gave at least 80% control of Fusarium culmorum at 200 ppm.

Botrytis cinerea = assay: as above; assay type: cell-based; details: 200 ppm, 24° C., 72 hours
Method: Botrytis cinerea (Gray mould): Conidia of the fungus from cryogenic storage were directly mixed into nutrient broth (PDB potato dextrose broth). After placing a (DMSO) solution of the test compounds into a microtiter plate (96-well format) the nutrient broth containing the fungal spores was added. The test plates were incubated at 24° C. and the inhibition of growth was determined photometrically after 72 hours. Compound (S)-(146) gave at least 80% control of Botrytis cinerea at 200 ppm.

[3] = tested on: wheat plants cultivar (cv.). Riband; assay: Plant growth regulation effects on wheat plants; assay type: in vivo; details: 200 ppm, spray chamber, 8 days at 22° C. and 80% r.h.
Method: Two weeks old wheat plants cultivar (cv.). Riband were treated with the formulated test compound in a spray chamber. After an incubation period of 8 days at 22° C. and 80% relative humidity (r.h.) in a greenhouse, the plant growth regulating effects were assessed.

summer wheat = assay: Plant growth effects on cereals: spray at beginning of stem elongation, visual growth reduction; assay type: in vivo; details: 225 g a.i./ha spray, 28 days after spray, visually evaluated versus untreated control
Source text: (§1) Plants of winter wheat and summer wheat were sprayed at the beginning of stem elongation, three weeks after sowing. Formulated test compounds 144, 145 and 146 were sprayed at 225 g a.i. (active ingredient)/ha, each, top over leaf with a boom sprayer on the plants. After the spray the plants were transferred to a greenhouse and 28 days after the spray the plant growth reduction was visually evaluated versus an untreated control.

winter wheat = assay: as above; assay type: in vivo; details: 225 g a.i./ha spray, 28 days after spray, visually evaluated versus untreated control
Source text: as §1

## O[C@H](c1cccnc1)c1c(-c2ccc(Cl)cc2F)noc1-c1ccc(F)cc1F (single isomer, unassigned) [Compound 153]
[1]
  PGR activity, enantiomer comparison: majority of PGR activity
[2]
  plant growth regulating effect (plant height): plant height decreased

## O[C@@H](c1cccnc1)c1c(-c2ccc(Cl)cc2F)noc1-c1ccc(F)cc1F (single isomer, unassigned) [Compound (S)-(146)]
Monographella nivalis
  control of Monographella nivalis: at least 80%
Rhizoctonia solani
  control of Rhizoctonia solani: at least 80%
Septoria tritici
  control of Septoria tritici: at least 80%
Mycosphaerella arachidis
  control of Mycosphaerella arachidis: at least 80%
Fusarium culmorum
  control of Fusarium culmorum: at least 80%
Botrytis cinerea
  control of Botrytis cinerea: at least 80%

## OC(c1cncnc1)c1c(-c2ccc(Cl)cc2F)noc1-c1ccc(F)cc1F (stereo not drawn) [Compound 144]
[2]
  plant growth regulating effect (plant height): plant height decreased
[3]
  plant growth regulating effect (plant height): plant height decreased
Summer wheat
  Summer Wheat % reduction (plant growth reduction): 10%
Winter wheat
  Winter Wheat % reduction (plant growth reduction): 7.5%

## OC(c1cncnc1)c1c(-c2ccc(Cl)cc2)noc1-c1ccc(F)cc1F (stereo not drawn) [Compound 145]
[2]
  plant growth regulating effect (plant height): plant height decreased
Summer wheat
  Summer Wheat % reduction (plant growth reduction): 17.5%
Winter wheat
  Winter Wheat % reduction (plant growth reduction): 5%

## OC(c1cccnc1)c1c(-c2ccc(Cl)cc2F)noc1-c1ccc(F)cc1F (stereo not drawn) [Compound 146, 3-(2-Fluoro-4-Chlorophenyl)-5-(2,4-difluorophenyl)-4-[(3-pyridyl)hydroxymethyl]-isoxazole]
other
  melting point: 138 to 140 °C
Summer wheat
  Summer Wheat % reduction (plant growth reduction): 10%
Winter wheat
  Winter Wheat % reduction (plant growth reduction): 10%

## OC(c1cncnc1)c1c(-c2ccc(Cl)cc2Cl)noc1-c1ccccc1Cl (stereo not drawn) [Compound 147, 3-(2,4-Chlorophenyl)-5-(2-Chlorophenyl)-4-[(3-pyrimidyl)hydroxymethyl]-isoxazole]
[2]
  plant growth regulating effect (plant height): plant height decreased

## OC(c1cncnc1)c1c(-c2ccc(Cl)cc2F)noc1-c1ccccc1Cl (stereo not drawn) [Compound 148, 3-(2-Fluoro-4-Chlorophenyl)-5-(2-Chlorophenyl)-4-[(3-pyrimidyl)hydroxymethyl]-isoxazole]
[2]
  plant growth regulating effect (plant height): plant height decreased

## COc1ncccc1-c1onc(-c2ccc(Cl)cc2)c1C(O)c1cncnc1 (stereo not drawn) [Compound 149, 3-(4-Chlorophenyl)-5-(2-Methoxypyridine)-4-[(3-pyrimidyl)hydroxymethyl]-isoxazole]
[2]
  plant growth regulating effect (plant height): plant height decreased

## OC(c1cncnc1)c1c(-c2ccc(Cl)cc2)noc1-c1ccc(F)cc1 (stereo not drawn) [Compound 150, 3-(4-Chlorophenyl)-5-(4-Fluorophenyl)-4-[(3-pyrimidyl)hydroxymethyl]-isoxazole]
[2]
  plant growth regulating effect (plant height): plant height decreased

## OC(c1cncnc1)c1c(-c2ccc(Cl)cc2)noc1-c1ccc(F)cc1F (stereo not drawn) [Compound 151, 3-(4-Chlorophenyl)-5-(2,4-Fluorophenyl)-4-[(3-pyrimidyl)hydroxymethyl]-isoxazole]
[2]
  plant growth regulating effect (plant height): plant height decreased

## OC(c1cccnc1)c1c(-c2ccc(F)cc2F)noc1-c1ccc(F)cc1Cl (stereo not drawn) [Compound 152, 3-(2,4-Diluoro)-5-(2-Chloro-4-Fluorophenyl)-4-[(3-pyridyl)hydroxymethyl]-isoxazole]
[2]
  plant growth regulating effect (plant height): plant height decreased
